Legend:
[1] = target: T1, human V1b receptor (hV1b) (Homo sapiens, UniProt P47901); assay: Radioligand binding assay (3H-AVP, SPA), human V1b; conditions: (n); 1 nM 3H-AVP; read-out: pKi V1b Human (converted)
T1 construct: expressed in transfected cells; host or cells: HEK cells, transient transfection; membrane preparation
T1 sequence (P47901 1-424): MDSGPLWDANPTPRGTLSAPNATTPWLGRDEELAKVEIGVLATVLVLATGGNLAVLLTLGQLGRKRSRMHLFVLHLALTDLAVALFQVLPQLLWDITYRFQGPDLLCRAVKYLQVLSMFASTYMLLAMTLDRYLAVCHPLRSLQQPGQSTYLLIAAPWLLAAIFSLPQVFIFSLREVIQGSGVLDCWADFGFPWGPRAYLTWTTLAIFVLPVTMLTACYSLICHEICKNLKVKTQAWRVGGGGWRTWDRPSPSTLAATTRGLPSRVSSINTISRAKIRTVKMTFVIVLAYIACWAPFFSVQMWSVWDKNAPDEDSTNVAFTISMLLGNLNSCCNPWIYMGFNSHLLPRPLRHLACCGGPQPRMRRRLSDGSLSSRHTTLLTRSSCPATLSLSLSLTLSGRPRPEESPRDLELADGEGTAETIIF
Protocol: (§1) The test compound was initially dissolved in DMSO at a concentration of 10 mM. Subsequent dilutions were made in assay buffer with a maximum final concentration of 0.2% DMSO.
(§2) Recombinant vasopressin V1a (human: hV1a; mouse: mV1a), V1b (human: hV1b) were independently expressed in human embryonic kidney (HEK) cells using transient transfection. The cell membranes expressing the various receptors were prepared by homogenizing (using Polytron homogenizer) the cell culture pellet in lysis buffer (50 mM HEPES, 1 mM EDTA, 10 mM MgCl2, pH 7.4 with protease inhibitors), then centrifuging the resulting suspension at 500 g for 20 min at 4° C. The supernatant was subsequently re-centrifuged at 43,000 g for 1 hour at 4° C. […] The concentration of protein was determined, and the membranes were aliquoted and stored at −80° C. until further use.
(§3) All radioligand binding assays were carried out in 96-well plates in the presence of 1 nM ^3H-AVP (vasopressin) radioligand, and 10 concentrations of test compound (ranging from 27 μM-1 nM or 2.7 μM-0.1 nM for hV1a binding). […] Filtration assays were terminated by rapid filtration under vacuum through GF/C filters, presoaked for 5 min with buffer B containing Tris 50 mM, MgCl2 5 mM, 0.1% BSA (pH 7.4), followed by 5×0.4 ml washes of ice-cold buffer B. For both SPA and filtration plates, bound ligand was determined using a Packard Topcount scintillation counter. […]

[2] = target: T2, mouse V1a receptor (mV1a) (Mus musculus, UniProt Q62463); assay: Radioligand binding assay (3H-AVP, filtration), mouse V1a; conditions: Ki ± SEM (n); 1 nM 3H-AVP
T2 construct: expressed in transfected cells; host or cells: HEK cells, transient transfection; membrane preparation
Protocol: as §1, §2, §3

T2 sequence (Q62463 whole entry): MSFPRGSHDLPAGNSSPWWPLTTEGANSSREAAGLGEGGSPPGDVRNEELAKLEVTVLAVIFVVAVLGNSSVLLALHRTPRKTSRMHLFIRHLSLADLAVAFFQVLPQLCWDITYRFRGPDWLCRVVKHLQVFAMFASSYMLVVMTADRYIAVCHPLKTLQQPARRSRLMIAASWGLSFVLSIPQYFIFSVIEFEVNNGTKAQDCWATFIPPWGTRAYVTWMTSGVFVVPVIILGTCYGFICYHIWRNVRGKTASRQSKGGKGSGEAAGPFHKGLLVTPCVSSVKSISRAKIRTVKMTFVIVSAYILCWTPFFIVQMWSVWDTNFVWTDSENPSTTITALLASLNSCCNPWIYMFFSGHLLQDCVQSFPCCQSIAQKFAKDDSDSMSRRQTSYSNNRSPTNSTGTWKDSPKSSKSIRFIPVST

SMILES: CN1Cc2cc(Cl)ccc2-n2c(nnc2[C@H]2CC[C@H](Oc3ccccn3)CC2)C1 [Example 1, trans-8-chloro-5-methyl-1-(4-pyridin-2-yloxycyclohexyl)-4,6-dihydro-[1,2,4]triazolo[4,3-a][1,4]benzodiazepine]
- Ki [1]: > 31600 nM
- Ki [2]: 77 ± 2 nM

Reference: US10265327B2, “V1A antagonists to treat phase shift sleep disorders” (Hoffmann-La Roche Inc., priority 2013, dated 2019)
